Assay results taken from patent publication US11254668B2, “Pyrazolo[1,5-A]pyrazin-4-yl and related derivatives” (Pfizer Inc., priority 2017, dated 2022).

Columns and labels:
Format in all cases: biochemical
JAK1 = JAK1 (Homo sapiens (Human), UniProt P23458); experiment: JAK Caliper Enzyme Assay at 1 mM ATP, JAK1
How it was run: (§1)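 Recombinant human kinase domains phosphorylate a fluorescent synthetic peptide at 1 mM ATP, room temperature, with enzyme and time tuned for 20-30% conversion; EDTA-stopped. Product/substrate separated by microfluidic mobility shift; percent effect versus DMSO and positive controls fitted to IC50 (nM).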

JAK3 = JAK3 (Homo sapiens (Human), UniProt P52333); experiment: JAK Caliper Enzyme Assay at 1 mM ATP, JAK3
JAK3, sequence (P52333 822-1111): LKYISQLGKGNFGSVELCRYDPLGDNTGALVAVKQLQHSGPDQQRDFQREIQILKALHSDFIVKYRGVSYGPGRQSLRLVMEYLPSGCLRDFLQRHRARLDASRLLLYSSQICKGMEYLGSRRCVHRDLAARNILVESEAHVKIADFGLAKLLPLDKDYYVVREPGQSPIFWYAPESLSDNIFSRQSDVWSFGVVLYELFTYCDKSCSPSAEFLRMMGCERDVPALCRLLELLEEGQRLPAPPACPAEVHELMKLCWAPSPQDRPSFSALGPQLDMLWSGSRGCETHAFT
How it was run: as §1

TYK2 = TYK2 (Homo sapiens (Human), UniProt P29597); experiment: JAK Caliper Enzyme Assay at 1 mM ATP, TYK2
TYK2, sequence (P29597 897-1176): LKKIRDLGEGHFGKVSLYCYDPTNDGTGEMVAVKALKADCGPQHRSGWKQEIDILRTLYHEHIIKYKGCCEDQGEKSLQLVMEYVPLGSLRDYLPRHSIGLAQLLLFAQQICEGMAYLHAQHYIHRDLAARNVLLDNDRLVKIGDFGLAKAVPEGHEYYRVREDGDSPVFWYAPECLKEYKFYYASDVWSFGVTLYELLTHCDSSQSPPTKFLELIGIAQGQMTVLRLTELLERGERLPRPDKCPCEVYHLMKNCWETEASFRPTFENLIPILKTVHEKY
How it was run: (§2)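 Recombinant human kinase domains phosphorylate a fluorescent synthetic peptide at 1 mM ATP and room temperature, with enzyme level and time tuned to 20–30% conversion before an EDTA stop. Microfluidic mobility-shift separation gives percent product from peak heights. Percent effect against plate controls (DMSO baseline) is plotted versus compound concentration.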

JAK2 = JAK2 (Homo sapiens (Human), UniProt O60674); experiment: JAK Caliper Enzyme Assay at 1 mM ATP, JAK2
JAK2, sequence (O60674 849-1124): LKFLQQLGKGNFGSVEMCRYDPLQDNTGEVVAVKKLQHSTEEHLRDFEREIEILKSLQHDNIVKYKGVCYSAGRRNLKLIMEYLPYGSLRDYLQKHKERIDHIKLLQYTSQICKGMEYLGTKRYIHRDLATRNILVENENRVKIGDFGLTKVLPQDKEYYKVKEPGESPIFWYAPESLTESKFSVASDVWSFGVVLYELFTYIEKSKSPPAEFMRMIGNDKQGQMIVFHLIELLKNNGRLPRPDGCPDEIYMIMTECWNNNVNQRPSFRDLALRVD
How it was run: as §2

JAK1, sequence (P23458 875-1153): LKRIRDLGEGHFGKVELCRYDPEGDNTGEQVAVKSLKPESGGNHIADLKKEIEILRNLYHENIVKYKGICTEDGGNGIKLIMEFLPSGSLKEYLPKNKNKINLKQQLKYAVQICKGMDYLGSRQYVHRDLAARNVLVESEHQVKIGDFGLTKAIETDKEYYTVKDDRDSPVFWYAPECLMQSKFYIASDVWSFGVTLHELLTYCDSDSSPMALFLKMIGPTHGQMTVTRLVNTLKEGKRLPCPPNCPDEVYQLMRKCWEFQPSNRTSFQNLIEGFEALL

Row | Structure (SMILES) | IC50 (JAK1) | IC50 (JAK3) | IC50 (TYK2) | IC50 (JAK2)
1 | Cn1ncc(-c2cc3ncccc3c(-c3ccn(C4(CC#N)CN(S(C)(=O)=O)C4)n3)n2)c1N [Example 137, [3-{3-[7-(5-amino-1-methyl-1H-pyrazol-4-yl)-1,6-naphthyridin-5-yl]-1H-pyrazol-1-yl}-1-(methylsulfonyl)azetidin-3-yl]acetonitrile] | 586 nM | > 10000 nM | 52 nM | 207 nM
2 | Cn1cc(-c2cc3ncccc3c(-c3ccn(C4(CC#N)CN(S(C)(=O)=O)C4)n3)n2)c(N)n1 [Example 138, [3-{3-[7-(3-amino-1-methyl-1H-pyrazol-4-yl)-1,6-naphthyridin-5-yl]-1H-pyrazol-1-yl}-1-(methylsulfonyl)azetidin-3-yl]acetonitrile] | 382 nM | 3190 nM | 8 nM | 21 nM
3 | Cn1cc(-c2cc3ncccc3c(-c3ccn([C@]4(CC#N)C[C@@H](C#N)C4)n3)n2)c(N)n1 [Example 139, trans-3-{3-[7-(3-amino-1-methyl-1H-pyrazol-4-yl)-1,6-naphthyridin-5-yl]-1H-pyrazol-1-yl}-3-(cyanomethyl)cyclobutanecarbonitrile] | 243 nM | 3720 nM | 10 nM | 20 nM
4 | Cn1cc(-c2cc3ncccc3c(-c3ccn([C@]4(CC#N)C[C@H](C#N)C4)n3)n2)c(N)n1 [Example 140, cis-3-{3-[7-(3-amino-1-methyl-1H-pyrazol-4-yl)-1,6-naphthyridin-5-yl]-1H-pyrazol-1-yl}-3-(cyanomethyl)cyclobutanecarbonitrile] | 48 nM | 474 nM | 8 nM | 10 nM
5 | Cn1ncc(-c2cc3ncccc3c(-c3ccn(C4(CC#N)CC(C#N)C4)n3)n2)c1N (stereo not drawn) [Example 141, trans-3-{3-[7-(5-amino-1-methyl-1H-pyrazol-4-yl)-1,6-naphthyridin-5-yl]-1H-pyrazol-1-yl}-3-(cyanomethyl)cyclobutanecarbonitrile] | 355 nM | > 10000 nM | 49 nM | 127 nM
6 | Cn1ncc(-c2cc3ncccc3c(-c3ccn([C@]4(CC#N)C[C@H](C#N)C4)n3)n2)c1N [Example 142, cis-3-{3-[7-(5-amino-1-methyl-1H-pyrazol-4-yl)-1,6-naphthyridin-5-yl]-1H-pyrazol-1-yl}-3-(cyanomethyl)cyclobutanecarbonitrile] | 53 nM | 2160 nM | 19 nM | 30 nM
7 | Cc1ccn(-c2cc3ncccc3c(-c3ccn(C4(CC#N)CN(CC(F)(F)F)C4)n3)n2)n1 [Example 143, [3-{3-[7-(3-methyl-1H-pyrazol-1-yl)-1,6-naphthyridin-5-yl]-1H-pyrazol-1-yl}-1-(2,2,2-trifluoroethyl)azetidin-3-yl]acetonitrile] | > 10000 nM | > 10000 nM | 767 nM | 6670 nM
8 | N#CCC1(n2ccc(-c3nc(-c4cn(C5COC5)cn4)cc4ncccc34)n2)CN(CC(F)(F)F)C1 [Example 144, [3-(3-{7-[1-(oxetan-3-yl)-1H-imidazol-4-yl]-1,6-naphthyridin-5-yl}-1H-pyrazol-1-yl)-1-(2,2,2-trifluoroethyl)azetidin-3-yl]acetonitrile] | > 10000 nM | > 10000 nM | 223 nM | 1370 nM
9 | CS(=O)(=O)N1CC(CC#N)(n2ccc(-c3nc(-c4cnco4)cc4ncccc34)n2)C1 [Example 145, [1-(methylsulfonyl)-3-{3-[7-(1,3-oxazol-5-yl)-1,6-naphthyridin-5-yl]-1H-pyrazol-1-yl}azetidin-3-yl]acetonitrile] | 3290 nM | > 10000 nM | 172 nM | 1790 nM
10 | N#CC[C@]1(n2ccc(-c3nc(-c4cc(CO)no4)cc4ncccc34)n2)C[C@@H](C#N)C1 [Example 146, cis-3-(cyanomethyl)-3-(3-{7-[3-(hydroxymethyl)-1,2-oxazol-5-yl]-1,6-naphthyridin-5-yl}-1H-pyrazol-1-yl)cyclobutanecarbonitrile] | 400 nM | > 10000 nM | 26 nM | 99 nM
11 | Cc1onc(N)c1-c1cc2ncccc2c(-c2ccn(C3(CC#N)CN(S(C)(=O)=O)C3)n2)n1 [Example 147, [3-{3-[7-(3-amino-5-methyl-1,2-oxazol-4-yl)-1,6-naphthyridin-5-yl]-1H-pyrazol-1-yl}-1-(methylsulfonyl)azetidin-3-yl]acetonitrile] | > 10000 nM | > 10000 nM | 7550 nM | > 10000 nM
12 | Cc1nc(-c2cc3ncccc3c(-c3ccn(C4(CC#N)CN(CC(F)(F)F)C4)n3)n2)c[nH]1 [Example 150, [3-{3-[7-(2-methyl-1H-imidazol-4-yl)-1,6-naphthyridin-5-yl]-1H-pyrazol-1-yl}-1-(2,2,2-trifluoroethyl)azetidin-3-yl]acetonitrile] | 9830 nM | > 10000 nM | 290 nM | 3420 nM
13 | Cc1nc(-c2cc3ncccc3c(-c3ccn(C4(CC#N)CN(CC(F)(F)F)C4)n3)n2)cn1C [Example 151, [3-{3-[7-(1,2-dimethyl-1H-imidazol-4-yl)-1,6-naphthyridin-5-yl]-1H-pyrazol-1-yl}-1-(2,2,2-trifluoroethyl)azetidin-3-yl]acetonitrile] | > 10000 nM | > 10000 nM | 309 nM | 1660 nM
14 | Cc1ncc(-c2cc3ncccc3c(-c3ccn(C4(CC#N)CN(CC(F)(F)F)C4)n3)n2)n1C [Example 152, [3-{3-[7-(1,2-dimethyl-1H-imidazol-5-yl)-1,6-naphthyridin-5-yl]-1H-pyrazol-1-yl}-1-(2,2,2-trifluoroethyl)azetidin-3-yl]acetonitrile] | > 10000 nM | > 10000 nM | 4140 nM | > 10000 nM
15 | N#CCC1(n2ccc(-c3nc(-c4cn[nH]n4)cc4ncccc34)n2)CN(CC(F)(F)F)C1 [Example 153, [3-{3-[7-(2H-1,2,3-triazol-4-yl)-1,6-naphthyridin-5-yl]-1H-pyrazol-1-yl}-1-(2,2,2-trifluoroethyl)azetidin-3-yl]acetonitrile] | 5840 nM | > 10000 nM | 239 nM | 3350 nM
16 | Cn1ncc(-c2cc3ncccc3c(-c3ccn(C4(CC#N)CN(CC(F)(F)F)C4)n3)n2)n1 [Example 154, [3-{3-[7-(2-methyl-2H-1,2,3-triazol-4-yl)-1,6-naphthyridin-5-yl]-1H-pyrazol-1-yl}-1-(2,2,2-trifluoroethyl)azetidin-3-yl]acetonitrile] | > 10000 nM | > 10000 nM | 287 nM | 3180 nM
17 | N#CCC1(n2ccc(-c3nc(-c4nc(CO)cs4)cc4ncccc34)n2)CC(C#N)C1 (stereo not drawn) [Example 156, cis-3-(cyanomethyl)-3-(3-{7-[4-(hydroxymethyl)-1,3-thiazol-2-yl]-1,6-naphthyridin-5-yl}-1H-pyrazol-1-yl)cyclobutanecarbonitrile] | 2050 nM | > 10000 nM | 119 nM | 815 nM
18 | CS(=O)(=O)N1CC(CC#N)(n2ccc(-c3nc(-c4c[nH]c5nccc-5c4)cc4ncccc34)n2)C1 [Example 157, [1-(methylsulfonyl)-3-{3-[7-(7H-pyrrolo[2,3-b]pyridin-5-yl)-1,6-naphthyridin-5-yl]-1H-pyrazol-1-yl}azetidin-3-yl]acetonitrile] | 1680 nM | > 10000 nM | 148 nM | 856 nM
19 | N#CCC1(n2ccc(-c3nc(-c4cnc5cc[nH]c5c4)cc4ncccc34)n2)CN(CC(F)(F)F)C1 [Example 158, [3-{3-[7-(1H-pyrrolo[3,2-b]pyridin-6-yl)-1,6-naphthyridin-5-yl]-1H-pyrazol-1-yl}-1-(2,2,2-trifluoroethyl)azetidin-3-yl]acetonitrile] | 1970 nM | > 10000 nM | 33 nM | 666 nM
20 | CS(=O)(=O)N1CC(CC#N)(n2ccc(-c3nc(-c4c[nH]c5ncccc45)cc4ncccc34)n2)C1 [Example 159, [1-(methylsulfonyl)-3-{3-[7-(1H-pyrrolo[2,3-b]pyridin-3-yl)-1,6-naphthyridin-5-yl]-1H-pyrazol-1-yl}azetidin-3-yl]acetonitrile] | 120 nM | > 10000 nM | 7 nM | 116 nM
21 | CS(=O)(=O)N1CC(CC#N)(n2ccc(-c3nc(-c4c[nH]c5cccnc45)cc4ncccc34)n2)C1 [Example 160, [1-(methylsulfonyl)-3-{3-[7-(1H-pyrrolo[3,2-b]pyridin-3-yl)-1,6-naphthyridin-5-yl]-1H-pyrazol-1-yl}azetidin-3-yl]acetonitrile] | > 10000 nM | > 10000 nM | 795 nM | 5570 nM
22 | CS(=O)(=O)N1CC(CC#N)(n2ccc(-c3nc(-c4cnn5ccccc45)cc4ncccc34)n2)C1 [Example 161, [1-(methylsulfonyl)-3-{3-[7-(pyrazolo[1,5-a]pyridin-3-yl)-1,6-naphthyridin-5-yl]-1H-pyrazol-1-yl}azetidin-3-yl]acetonitrile] | 404 nM | > 10000 nM | 35 nM | 368 nM
23 | CS(=O)(=O)N1CC(CC#N)(n2ccc(-c3nc(-c4ccc5nccn5c4)cc4ncccc34)n2)C1 [Example 162, [3-{3-[7-(imidazo[1,2-a]pyridin-6-yl)-1,6-naphthyridin-5-yl]-1H-pyrazol-1-yl}-1-(methylsulfonyl)azetidin-3-yl]acetonitrile] | 788 nM | > 10000 nM | 68 nM | 546 nM
